Results taken from patent US6806230B1, “Pyrimidine derivatives and herbicides containing them” (Kumiai Chemical Industry Co., Ltd., priority 1999, dated 2004).

Legend:
Format in all cases: in vivo
barnyard grass (Eo) [1] = experiment: Test Example 1: herbicidal effects by flooded paddy field treatment; conditions: dose 100 gai/10a, examined on 21st day after treatment, index 0-5 per Table 44;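 also: 0-5 growth inhibition grade; 5 = over 90%; 4 = 70-90%; 3 = 50-70%; 2 = 30-50%; 1 = 10-30%; 0 = under 10%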
Summary of the method: (§1)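 Herbicidal effect is a graded score assigned 21 days after treatment. Application was one day after sowing into flooded (3 cm) puddled paddy soil, with diluted wettable powder dropped onto the water at 100 g active ingredient per 10 ares. Plants were kept in a greenhouse.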

monochoria (Mo) [2] = experiment: as above; conditions: dose 100 gai/10a, examined on 21st day after treatment, index 0-5 per Table 44
Summary of the method: as §1

barnyard grass (Ec) [3] = experiment: Test Example 2: herbicidal effects by upland soil treatment; set-up: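 0-5 growth inhibition grade; 5 = over 90%; 4 = 70-90%; 3 = 50-70%; 2 = 30-50%; 1 = 10-30%; 0 = under 10%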; conditions: dose 100 g active ingredient per 10 ares, examined on the 21st day after treatment, standards of Table 44
Summary of the method: (§2)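 Pre-emergence test: barnyard grass and green foxtail sown in upland soil, then soil surface sprayed with wettable-powder formulation at 100 g active ingredient per 10 ares (100 l per 10 ares). Grown in greenhouse; herbicidal effect scored on a rating scale 21 days after treatment.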

green foxtail (Se) = experiment: as above; conditions: dose 100 g active ingredient per 10 ares, examined on the 21st day after treatment, standards of Table 44;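 also: 0-5 growth inhibition grade; 5 = over 90%; 4 = 70-90%; 3 = 50-70%; 2 = 30-50%; 1 = 10-30%; 0 = under 10%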
Summary of the method: as §2

barnyard grass (Ec) [4] = experiment: Test Example 3: herbicidal effects by foliage treatment in upland field; set-up: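 0-5 growth inhibition grade; 5 = over 90%; 4 = 70-90%; 3 = 50-70%; 2 = 30-50%; 1 = 10-30%; 0 = under 10%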; conditions: dose 100 g active ingredient per 10 ares, examined on the 14th day after treatment
Summary of the method: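 Barnyard grass and green foxtail were grown in upland soil for 2 weeks in a greenhouse. A water-diluted wettable powder was sprayed over the foliage at 100 l per 10 ares, giving 100 g active ingredient per 10 ares. Herbicidal effect was scored on day 14 after treatment.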

barnyard grass (Eo) [5] = experiment: Test Example 4: selectivity for a crop plant by flooded paddy field treatment; set-up: scale not given here; conditions: dose 25 g active ingredient per 10 ares, examined on the 21st day after treatment
Summary of the method: (§3)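 Scores reflect visual herbicidal effect, graded on a standard scale 21 days after water-surface treatment. The product, a wettable powder diluted with water, went on dropwise at 25 g a.i. per 10 ares one day after flooding to 3 cm. Weeds grew from sown seed and rice was transplanted at second-leaf stage.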

monochoria (Mo) [6] = experiment: as above; set-up: scale not given here; conditions: dose 25 g active ingredient per 10 ares, examined on the 21st day after treatment
Summary of the method: as §3

rice (Or) = experiment: as above; set-up: scale not given here; conditions: rice transplanted at second leaf stage, dose 25 g active ingredient per 10 ares, examined on the 21st day after treatment
Summary of the method: as §3

barnyard grass (Ec) [7] = experiment: Test Example 5: selectivity for a crop plant by soil treatment in upland field; set-up: scale not given here; conditions: dose 25 gai/10a, 21st day after treatment, index per Table 44
Method: (§4) In a 80 cm^2 plastic pot, upland soil was filled, and seeds of barnyard grass (Ec), green foxtail (Se), soybean (G1), wheat (Tr) and corn (Ze) were sown and covered with soil. A wettable powder prepared in accordance with Formulation Example 1 was diluted with water and uniformly applied to the soil surface by a small size spray at a rate of 100 l per 10 ares so that the dose of the active ingredient would be 25 g per 10 ares. Thereafter, cultivation was carried out in a green house, and on the 21st day after the treatment, the herbicidal effects were examined in accordance with the standards of Table 44.

corn (Ze) = experiment: as above; set-up: scale not given here; conditions: dose 25 gai/10a, 21st day after treatment, index per Table 44
Method: as §4

soybean (G1) = experiment: as above; set-up: scale not given here; conditions: dose 25 gai/10a, 21st day after treatment, index per Table 44
Method: as §4

wheat (Tr) = experiment: as above; set-up: scale not given here; conditions: dose 25 gai/10a, 21st day after treatment, index per Table 44
Method: as §4
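For Herbicidal effect index, Mo in this document: 0-5 growth inhibition grade; 5 = over 90%; 4 = 70-90%; 3 = 50-70%; 2 = 30-50%; 1 = 10-30%; 0 = under 10%.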

Compound	Herbicidal effect index, Eo (barnyard grass (Eo) [1])	Herbicidal effect index, Mo (monochoria (Mo) [2])	herbicidal effects, Ec (barnyard grass) (barnyard grass (Ec) [3])	herbicidal effects, Se (green foxtail) (green foxtail (Se))	Ec (herbicidal effects, index) (barnyard grass (Ec) [4])	Eo (herbicidal effects, index) (barnyard grass (Eo) [5])	Mo (herbicidal effects, index) (monochoria (Mo) [6])	Or (effect on crop plant rice, index) (rice (Or))	Ec (herbicidal effect index) (barnyard grass (Ec) [7])	Ze (herbicidal effect index on crop) (corn (Ze))	Gl (herbicidal effect index on crop) (soybean (G1))	Tr (herbicidal effect index on crop) (wheat (Tr))
CCC(C)C(c1cncnc1C(F)(F)F)N(C)C(=O)Cc1ccc(Cl)cc1 (mixture of isomers) [Compound 1-59]	5	5	5	5	4	5	5	0	5	0	0	1
CCC(C)C(c1cncnc1C(F)(F)F)N(C)C(=O)Cc1ccc(C)cc1 (mixture of isomers) [Compound 1-60]	5	5	5	5	4	5	5	1	5	0	1	2
CC(C)C(c1cncnc1C(F)(F)F)N(C)C(=O)Cc1ccc(I)cc1 (racemic) [Compound 1-42]	5	5	5	5	4	5	5	0	5	0	0	0
CC(C)C(c1cncnc1C(F)(F)F)N(C)C(=O)Cc1ccc(Cl)cc1F (racemic) [Compound 1-46]	5	5	5	5	4	5	5	0	5	0	1	3
CCN(C(=O)Cc1ccc(Cl)cc1)C(c1cncnc1C(F)(F)F)C(C)C (racemic) [Compound 1-48]	5	5	5	5	5	5	5	1	4	0	0	1
Cc1ccccc1CC(=O)N(C)C(c1cncnc1C(F)(F)F)C(C)C (racemic) [Compound 1-50]	5	5	5	5	4	5	5	1	4	0	3	3
CN(C(=O)Cc1ccc(F)cc1)C(c1cncnc1C(F)(F)F)C(C)(C)C (racemic) [Compound 1-53]	5	5	5	5	4	5	5	1	4	0	1	2
CN(C(=O)Cc1ccc(Cl)cc1)C(c1cncnc1C(F)(F)F)C(C)(C)C (racemic) [Compound 1-54]	5	5	5	5	5	5	5	1	4	0	0	1
Cc1ccc(CC(=O)N(C)C(c2cncnc2C(F)(F)F)C(C)(C)C)cc1 (racemic) [Compound 1-55]	5	5	5	5	4	5	5	1	5	0	1	1
CCN(C(=O)Cc1ccc(C)cc1)C(c1cncnc1C(F)(F)F)C(C)C (racemic) [Compound 1-61]	5	5	5	5	4	5	5	1	5	0	1	3
CC(C)C(c1cncnc1C1CC1)N(C)C(=O)Cc1ccc(Cl)cc1 (racemic) [Compound 1-78]	5	5	5	5	5	5	5	1	5	0	0	1
CC(C)C(c1cncnc1C(F)(F)F)N(C(=O)Cc1ccc(Cl)cc1)C1CC1 (racemic) [Compound 1-81]	5	5	5	5	4	5	5	0	4	0	0	1
CC(C)C(c1cncnc1C(F)(F)F)N(C(=O)Cc1ccc(F)cc1)C1CC1 (racemic) [Compound 1-83]	5	5	5	5	5	5	5	1	5	1	1	2
Cc1ccc(CC(=O)N(C)C(c2cncnc2C)C(C)C)cc1 (racemic) [Compound 1-89]	5	5	5	5	5	5	5	0	4	2	0	2
